We go through 2 compounds from patent US8202904B2, “α-cyano-4-fluoro-3-phenoxybenzyl meta-halo pyrethrate, a process for preparing the same and the uses thereof” (East China Normal University, priority 2007, dated 2012).

The test system of series [1] is Musca domestica. Briefly: Striking down effect on Musca domestica, liquid film contact method. Particulars: Musca domestica adults, film from 1 ml of 0.1% liquor in acetone in 500 ml conical flask. It counts as in vivo. The arrangement: unit not given here. As for the experimental part: The striking down effect on Musca domestica was tested using Compounds 2 and 3, which are representative examples of the compound of formula (I) of the present invention, Compound 9 as a control example. Musca domestica, an in-house cultured sensitive strain, the adult insects in eclosion for 3-5 days were used, and the male and female insects are half and half. Test temperature: 26±1° C., humidity: 70±10%, test method: liquid film contact method. 1 ml of 0.1% liquor in acetone was evenly coated on a 500 ml conical flask to form a film. After the film was dry, 20˜25 adult insects were put into the flask, and the striking down time and striking down number were observed, and each treatment was done in triplicate.

Series [2] concerns Mythimna separata. Briefly: Killing effect on Mythimna separata, dipped corn leaves fed to larvae. It counts as in vivo. Particulars: for The average mortality: after 48 hours. As for the experimental part: The killing effect on Mythimna separata was tested using Compounds 2 and 3, which are representative examples of the compound of formula (I) of the present invention, Compound 9, polyfluorobenzyl meta-halo pyrethrate, which has the highest insecticidal activity to Mythimna separata as a control example.
Mythimna separata: test temperature: 26±1° C., humidity: 70±10%; the corn leaves was immersed, and then were taken out after they were dipped in a liquor in dimethyl sulfoxide for 5 seconds. The liquor was dried in the shade and the corn leaves were cut away to feed larvae at the beginning of the third instar. Each treatment was done in triplicate. The number of killed insects was counted after 48 hours to calculate the mortality.

Series [3] relates to Tetrangychus cinnabarinus. The experiment in a line: Killing effect on Tetrangychus cinnabarinus, immersion. It counts as in vivo. To be noted: after 24 hours. As for the experimental part: The killing effect on acarids was tested using Compound 2 and 3, which are representative examples of the compound of formula (I) of the present invention, Compound 9 as a control example. Tetrangychus cinnabarinus, test temperature: 26±1° C. humidity: 70±10%; test method: immersion; adult insects together with horsebean leaves were immersed in a liquor in dimethyl sulfoxide for 5 seconds, after which the leaves were inserted into a small bottle. Each treatment was done in triplicate. The number of the killed insects was checked after 24 hours to calculate the mortality.

Series [4] deals with Culex pipiens pallens fourth instar wiggler. Briefly: Killing effect on wiggler, WHO immersing method, LC50. The class given is in vivo. Particulars: for Relative toxicity: from wiggler LC50, Cypermethrin = 100. The method, then: The following pyrethrates were tested as representatives according to the method recommended by the World Health Organization (WHO) (Zongbing ZHANG, the assay of toxicity of insecticides, the Science Press, 1988), the commonly used testing breed, Culex pipiens pallens fourth instar wiggler is used as a subject for biological assay, test temperature: 26±1° C., humidity: 70±10%; immersing method: a solution of a certain amount the compound to be tested in acetone was mixed evenly with pure water in the gradually decreasing concentration of 500, 250, 100, 50, 25, 12.5, 6.25, 3.125, 1, 0.5, 0.25, 0.1, 0.05, 0.025, 0.01, 0.005, 0.0025, 0.0001 mg/L, and the mortality of wiggler after 24 hours was calculated and LC50 was calculated to preliminarily evaluate the insecticidal activity. The results were shown in Table I. Compound 1-5 are representative examples of the compound of formula (I) of the present invention: the compounds involved in preparation Example 1-5 were prepared;
At the same time, their relative toxicities were compared with those of Cypermethrin, and Deltamethrin.

Series [5] has as its system Aphis medicaginis kock. The experiment in a line: Killing effect on aphids, immersion. Particulars: for The average mortality: aphids, after 24 hours. The class given is in vivo. The method, then: The killing effect on aphids was tested using Compound 2 and 3, which are representative examples of the compound of formula (I) of the present invention, Compound 9 as a control example. Aphis medicaginis kock; test temperature: 26±1° C., humidity: 70±10%; test method: immersion; adult insects together with bean sprouts were immersed in a liquor in dimethyl sulfoxide for 5 seconds, after which the bean sprouts were heeled in a solid support. Each treatment was done in triplicate. The number of the killed insects was checked after 24 hours to calculate the mortality.

Series [6] in a line: Stability test, ultraviolet lamp irradiation, gas chromatography analysis. The class given is physicochemical. To be noted: 30 min, 3 mM. The method, then:
0.15 mmol of the compound of Preparation Example 2 (cis-α-cyano-3-phenoxy-4-fluoro-benzyl-2,2-dimethyl-3-(2-chlorovinyl)cyclopropane carboxylate) and 0.15 mmol of the corresponding dichloride compound (cis-α-cyano-3-phenoxy-4-fluoro-benzyl-2,2-dimethyl-3-(2,2-dichlorovinyl)cyclopropane carboxylate) were added to two vessels separately, to which 50 ml of cyclohexane were added separately. They were irradiated by a 500 W ultraviolet lamp for 30 min respectively. Then to each of the vessels were added 0.15 mmol of n-hexane as an internal standard for gas chromatography analysis. […] The photodegradation rate of the former is 1.9 times of that of the latter. That is to say, if the same amounts were used, the residue of the former in the environment is lower than that of the latter.

Series [7] relates to Blattela germanica. Briefly: Striking down effect on cockroaches, liquid film contact method. To be noted: Blattela germanica male adults, film at 54 mg/m^2, 22±1° C. The class given is in vivo. Also on record: unit not given here. As for the experimental part: The striking down effect on Blattela germanica was tested using Compound 2 and 3, which are representative examples of the compound of formula (I) of the present invention, Compound 9 as a control example. Blattela germanica, an in-house cultured sensitive strain, male adult insects were used. Test temperature: 22±1° C., test method: liquid film contact method. A liquor in acetone was evenly coated at the amount of 54 mg/m^2 on the inner wall of a wild mouth bottle to form a film. After the film was dry, 10 adult insects were put into each bottle, and the striking down time and striking down number were observed, and each treatment was done in triplicate.

Series [8] is described as follows: Acute toxicity on rats by oral administration. To be noted: rat, in vivo.
Setting [9] is: 48 h, read-out: The average mortality.
The mark [10] stands for this setting: Aphis medicaginis, 24 h, read-out: The average mortality.

≈ marks a conversion by molar mass, not a printed value.

In series [1], `CC1(C)[C@H](C=CCl)[C@@H]1C(=O)OC(C#N)c1ccc(F)c(Oc2ccccc2)c1` (relative stereo) [Compound 2, cis-α-cyano-3-phenoxy-4-fluoro-benzyl-2,2-dimethyl-3-(2-chlorovinyl)cyclopropane carboxylate] had a KT50 of 3.49. For the same compound, in series [2] (setting [9]), the mortality (usually the percentage killed) at 0.25 ppm is 0%, the mortality at 0.5 ppm turned out to be 33.3%, the mortality at 1 ppm turned out to be 66.7% and the mortality at 5 ppm amounted to 100%. In series [2] (setting [9]), the mortality at 50 ppm is 100% and the mortality at 500 ppm is 100%. This compound returned a The average mortality in series [3] (1 mg/L) of 0%. For the same compound, the The average mortality in series [3] (5 mg/L) was 11.9%. In series [3] (50 mg/L), this compound returned a The average mortality of 91.1%. For the same compound, the The average mortality in series [3] (500 mg/L) is on record as 100%. Moreover, in series [4] (Culex pipiens pallen larvae), the “relative toxicity versus cypermethrin” value is on record as 22.55 times, the “relative toxicity versus deltamethrin” value came to 2.55 times and the “relative toxicity versus the compounds in comparative examples 1-6” value is listed as 125-1128 times. Besides, the LC50 (usually the concentration that kills 50% of the test population) in series [4] (Culex pipiens, 24 h) was found to be 0.47 ng/mL (≈ 1.18 nM). For the same compound, the “relative toxicity versus deltamethrin, estimated for the single chiral isomer” value in series [4] (extrapolated 4*2.55 from the racemate of four chiral isomers) was 10 times. In series [4], the Relative toxicity stood at 2255. Further, in series [5] (setting [10]), the mortality at 0.25 ppm worked out at 0%, the mortality at 0.5 ppm came out at 28.8%, the mortality at 1 ppm came to 84.3% and the mortality at 5 ppm worked out at 89.5%. In series [5] (setting [10]), the mortality at 50 ppm was 100% and the mortality at 500 ppm stood at 100%. Moreover, in series [6], the degraded by light is given as 30% and the “photodegradation rate relative to the corresponding dichloride compound” value was found to be 1.9 times. The KT50 in series [7] turned out to be 5.12. Also, in series [8] (female), the LD50 (as a rule, the dose expected to kill half of the subjects tested) was found to be 158 mg/kg. For the same compound, the LD50 in series [8] (male) was determined as 116 mg/kg.
For `CC1(C)[C@@H](C=CCl)[C@@H]1C(=O)OCc1c(F)c(F)cc(F)c1F` (relative stereo) [Compound 9, trans-2,3,5,6-tetrafluoro-4-benzyl-3-(2-chlorovinyl)-2,2-dimethylcyclopropane carboxylat, reference compound], the KT50 in series [1] is listed as 9.51; in series [7] it was 12.0. Further, the The average mortality is on record as 0% in series [2] (0.5 ppm); 0% in series [2] (1 ppm); 0% in series [2] (5 ppm); 100% in series [2] (50 ppm); 100% in series [2] (500 ppm); 0% in series [3] (1 mg/L). The The average mortality in series [3] (5 mg/L), in series [3] (50 mg/L), in series [3] (500 mg/L), in series [5] (0.5 ppm), in series [5] (1 ppm) and in series [5] (5 ppm) was 0% in each case. In addition, the The average mortality in series [5] (50 ppm) is listed as 18.8%; in series [5] (500 ppm), 100%. The compound also came in with a median lethal concentration (LC50) in series [4] (Culex pipiens pallens fourth instar wiggler, immersing method, mortality after 24 hours, 26±1° C.) of 249.2 ng/mL (≈ 740 nM). The Relative toxicity in series [4] stood at 4.
